Laboratory results: ChEMBL document CHEMBL1165894, “Synthesis and pharmacological characterization of a novel nitric oxide-releasing diclofenac derivative containing a benzofuroxan moiety” (Eur J Med Chem, 2010)
Activity calls are given as the source filed them. No cut-off for these calls is given here.

Tests used:
Blood [1] = assay: Antiinflammatory activity in human whole blood assessed as inhibition of LPS-induced PGE2 production at 1 to 100 uM after 18 hrs by ELISA; type: functional, tissue-based
Blood [2] = assay: Antiinflammatory activity in human whole blood assessed as inhibition of LPS-induced production at 0.01 to 100 uM after 18 hrs by ELISA
[3] = Induction of NO release in phosphate buffer containing L-cysteine at pH 7.4 assessed as nitrite level by Griess assay; type: physicochemical
Rattus norvegicus [4] = assay: Antiinflammatory activity in Wistar rat assessed as reduction in carrageenan-induced paw edema at 100 mg/kg, ip after 0.5 to 4 hrs; type: functional, organism-based; set-up: dose 100 mg/kg
Rattus norvegicus [5] = assay: Toxicity in Wistar rat assessed as reduction in PGE2 level in gastric mucosa at 30 mg/kg, po; type: organism-based; set-up: dose 30 mg/kg, route oral; conditions: in vivo

Activity [3]: 372 nM
Compound: O=C(Cc1ccccc1Nc1c(Cl)cccc1Cl)OCc1ccc2no[n+]([O-])c2c1
Activity (Blood [1]): Active | Activity (Blood [2]): Active | Activity (Rattus norvegicus [4]): Active | Activity (Rattus norvegicus [5]): Toxic
